Experimental data: ChEMBL document CHEMBL2417551, “Structure-guided design of novel thiazolidine inhibitors of O-acetyl serine sulfhydrylase from Mycobacterium tuberculosis” (J Med Chem, 2013)

How the values were obtained:
[1] = molecular target: O-acetylserine sulfhydrylase (Mycobacterium tuberculosis) (UniProt P9WP55); settings: at 500 nM
Description: Inhibition of Mycobacterium tuberculosis N-terminal His-6-tagged recombinant CysK1 expressed in Escherichia coli BL21 (DE3) at 500 nM after 20 mins by spectrophotometric analysis

[2] = molecular target: O-acetylserine sulfhydrylase (Mycobacterium tuberculosis, UniProt P9WP55)
Description: Inhibition of Mycobacterium tuberculosis N-terminal His-6-tagged recombinant CysK1 expressed in Escherichia coli BL21 (DE3) after 20 mins by spectrophotometric analysis

SMILES	inhibition [1] [%]	IC50 [2] [nM]
COC(=O)COc1ccccc1/C=C1\S/C(=N\c2cccc(C(=O)O)c2)N(C)C1=O	56.3	–
C=CCN1C(=O)/C(=C/c2ccccc2OCC(=O)O)S/C1=N\c1cccc(C(=O)O)c1	25.4	–
CN1C(=O)/C(=C/c2ccccn2)S/C1=N\c1cccc(C(=O)O)c1	64.4	–
CCN1C(=O)/C(=C/c2ccccc2O)S/C1=N\c1cccc(C(=O)O)c1	53.2	–
CCCN1C(=O)/C(=C/c2ccc(OCC(=O)O)cc2)S/C1=N\c1cccc(C(C)=O)c1	0	–
COc1ccc(/C=C2\S/C(=N\c3cccc(C(=O)O)c3)N(C)C2=O)cc1OC	89.7	54.3
CCCN1C(=O)/C(=C/c2ccc(O)cc2)S/C1=N\c1cccc(C(C)=O)c1	10.7	–
CC(C)N1C(=O)/C(=C/c2ccc(OCC(=O)O)cc2)S/C1=N\c1cccc(C(=O)O)c1	12.6	–
C=CCN1C(=O)/C(=C/c2ccc(O)cc2)S/C1=N\c1cccc(C(C)=O)c1	28.9	–
CCN1C(=O)/C(=C/c2ccc(OCC(=O)O)cc2)S/C1=N\c1cccc(C(=O)O)c1	36.9	–
CCN1C(=O)/C(=C/c2ccc[nH]2)S/C1=N\c1cccc(C(=O)O)c1	32.5	–
COc1cc(/C=C2\S/C(=N\c3cccc(C(=O)O)c3)N(C)C2=O)cc(OC)c1OC	89.4	69.9
Cc1cccc(/C=C2\S/C(=N\c3cccc(C(=O)O)c3)N(C)C2=O)c1	49.6	–
C=CCN1C(=O)/C(=C/c2ccccc2OCC(=O)OC)S/C1=N\c1cccc(C(=O)O)c1	38.6	–
CN1C(=O)/C(=C/c2ccccc2O)S/C1=N\c1cccc(C(=O)O)c1	62.7	–
CCCCN1C(=O)/C(=C/c2ccc(OCC(=O)OC)cc2)S/C1=N\c1cccc(C(C)=O)c1	0	–
CN1C(=O)/C(=C/c2ccc(Cl)cc2)S/C1=N\c1cccc(C(=O)O)c1	59.7	–
CN1C(=O)/C(=C/c2ccc(O)cc2)S/C1=N\c1cccc(C(=O)O)c1	92.6	62.6
CN1C(=O)/C(=C/c2ccc(C(F)(F)F)cc2)S/C1=N\c1cccc(C(=O)O)c1	72.1	–
CCN1C(=O)/C(=C/c2ccc(OCc3ccccc3)cc2)S/C1=N\c1cccc(C(=O)O)c1	81.1	–
CCCCN1C(=O)/C(=C/c2ccc(O)cc2)S/C1=N\c1cccc(C(=O)O)c1	78.5	–
CCCN1C(=O)/C(=C/c2ccc(OCC(=O)O)cc2)S/C1=N\c1cccc(C(=O)O)c1	0	–
CCN1C(=O)/C(=C/c2ccc(OCC(=O)O)cc2)S/C1=N\c1cccc(C(C)=O)c1	10	–

SMILES	inhibition [1] [%]	IC50 [2] [nM]
CCCCN1C(=O)/C(=C/c2ccc(OCC(=O)OC)cc2)S/C1=N\c1cccc(C(=O)O)c1	16.4	–
COc1ccccc1/C=C1\S/C(=N\c2cccc(C(=O)O)c2)N(C)C1=O	96.9	160
CCN1C(=O)/C(=C/c2ccccc2OC)S/C1=N\c1cccc(C(=O)O)c1	59.5	–
CN1C(=O)/C(=C/c2c[nH]c3ccccc23)S/C1=N\c1cccc(C(=O)O)c1	73.5	–
CC(=O)c1cccc(/N=C2\S/C(=C\c3ccc(O)cc3)C(=O)N2C(C)C)c1	8.2	–
C=CCN1C(=O)/C(=C/c2ccc(O)cc2)S/C1=N\c1cccc(C(=O)O)c1	92.3	110
CN1C(=O)/C(=C/c2cnccc2C(F)(F)F)S/C1=N\c1cccc(C(=O)O)c1	34.4	–
CCN1C(=O)/C(=C/c2ccc(O)c(OC)c2)S/C1=N\c1cccc(C(=O)O)c1	75.6	–
CCN1C(=O)/C(=C/c2ccccc2)S/C1=N\c1cccc(C(=O)O)c1	39.3	–
CCN1C(=O)/C(=C/c2cc(OC)c(OC)c(OC)c2)S/C1=N\c1cccc(C(=O)O)c1	37.4	–
CCN1C(=O)/C(=C/c2ccccc2C)S/C1=N\c1cccc(C(=O)O)c1	47	–
CN1C(=O)/C(=C/c2ccc(OCc3ccccc3)cc2)S/C1=N\c1cccc(C(=O)O)c1	91.5	25.6
CC(C)N1C(=O)/C(=C/c2ccc(O)cc2)S/C1=N\c1cccc(C(=O)O)c1	90.3	141
CCN1C(=O)/C(=C/c2cccc(O)c2)S/C1=N\c1cccc(C(=O)O)c1	52.8	–
CCCCN1C(=O)/C(=C/c2ccc(OCC(=O)O)cc2)S/C1=N\c1cccc(C(=O)O)c1	0	–
CCN1C(=O)/C(=C/c2ccccc2Br)S/C1=N\c1cccc(C(=O)O)c1	54.1	–
CCN1C(=O)/C(=C/c2ccc(OCC(=O)OC)cc2)S/C1=N\c1cccc(C(C)=O)c1	8.2	–
CN1C(=O)/C(=C/c2ccc(Cl)cc2Cl)S/C1=N\c1cccc(C(=O)O)c1	57.4	–
CN1C(=O)/C(=C/c2ccccc2)S/C1=N\c1cccc(C(=O)O)c1	52.2	–
CCN1C(=O)/C(=C/c2ccc(OC)c(OC)c2)S/C1=N\c1cccc(C(=O)O)c1	90.9	56
CCN1C(=O)/C(=C/c2ccccc2OCc2ccccc2)S/C1=N\c1cccc(C(=O)O)c1	59.3	–
CCN1C(=O)/C(=C/c2ccc(Cl)cc2Cl)S/C1=N\c1cccc(C(=O)O)c1	45.4	–
CCN1C(=O)/C(=C/c2c[nH]c3ccccc23)S/C1=N\c1cccc(C(=O)O)c1	61.9	–

SMILES	inhibition [1] [%]	IC50 [2] [nM]
C=CCN1C(=O)/C(=C/c2ccc(OCC(=O)OC)cc2)S/C1=N\c1cccc(C(=O)O)c1	19.9	–
CCN1C(=O)/C(=C/c2ccc(O)cc2)S/C1=N\c1cccc(C(C)=O)c1	3.4	–
CC(C)c1ccc(/C=C2\S/C(=N\c3cccc(C(=O)O)c3)N(C)C2=O)cc1	54	–
CN1C(=O)/C(=C/c2ccc[nH]2)S/C1=N\c1cccc(C(=O)O)c1	58.4	–
CCN1C(=O)/C(=C/c2ccc(Br)cc2)S/C1=N\c1cccc(C(=O)O)c1	60.9	–
C=CCN1C(=O)/C(=C/c2ccc(OCC(=O)O)cc2)S/C1=N\c1cccc(C(C)=O)c1	0	–
CN1C(=O)/C(=C/c2ccc(Br)cc2)S/C1=N\c1cccc(C(=O)O)c1	70.5	–
CN1C(=O)/C(=C/c2cccc(C(F)(F)F)c2)S/C1=N\c1cccc(C(=O)O)c1	26.1	–
CCN1C(=O)/C(=C/c2ccc(Cl)c(Cl)c2)S/C1=N\c1cccc(C(=O)O)c1	37.8	–
CN1C(=O)/C(=C/c2cccc(O)c2)S/C1=N\c1cccc(C(=O)O)c1	56.8	–
C=CCN1C(=O)/C(=C/c2ccc(OCC(=O)OC)cc2)S/C1=N\c1cccc(C(C)=O)c1	10.9	–
CCN1C(=O)/C(=C/c2ccccc2OCC(=O)OC)S/C1=N\c1cccc(C(=O)O)c1	31	–
CN1C(=O)/C(=C/c2ccc([N+](=O)[O-])cc2)S/C1=N\c1cccc(C(=O)O)c1	51.8	–
CC(=O)c1cccc(/N=C2\S/C(=C\c3ccc(OCC(=O)O)cc3)C(=O)N2C(C)C)c1	10.2	–
CCN1C(=O)/C(=C/c2ccc(C(C)C)cc2)S/C1=N\c1cccc(C(=O)O)c1	49.6	–
Cc1ccccc1/C=C1\S/C(=N\c2cccc(C(=O)O)c2)N(C)C1=O	57.4	–
CCN1C(=O)/C(=C/c2ccc(N(C)C)cc2)S/C1=N\c1cccc(C(=O)O)c1	52.4	–
CCN1C(=O)/C(=C/c2ccc([N+](=O)[O-])cc2)S/C1=N\c1cccc(C(=O)O)c1	32.7	–
CCN1C(=O)/C(=C/c2ccc(Cl)cc2)S/C1=N\c1cccc(C(=O)O)c1	54.4	–
CCN1C(=O)/C(=C/c2ccc(F)cc2)S/C1=N\c1cccc(C(=O)O)c1	68.3	–
Cc1ccc(/C=C2\S/C(=N\c3cccc(C(=O)O)c3)N(C)C2=O)cc1	45.6	–
CCCCN1C(=O)/C(=C/c2ccc(OCC(=O)O)cc2)S/C1=N\c1cccc(C(C)=O)c1	24.1	–
CN1C(=O)/C(=C/c2ccc(Cl)c(Cl)c2)S/C1=N\c1cccc(C(=O)O)c1	60	–

SMILES	inhibition [1] [%]	IC50 [2] [nM]
CCN1C(=O)/C(=C/c2ccccc2Cl)S/C1=N\c1cccc(C(=O)O)c1	43.3	–
CN1C(=O)/C(=C/c2ccccc2Br)S/C1=N\c1cccc(C(=O)O)c1	50.5	–
CCN1C(=O)/C(=C/c2cnccc2C(F)(F)F)S/C1=N\c1cccc(C(=O)O)c1	46	–
COC(=O)COc1ccc(/C=C2\S/C(=N\c3cccc(C(=O)O)c3)N(C(C)C)C2=O)cc1	0	–
CC(C)N1C(=O)/C(=C/c2ccccc2OCC(=O)O)S/C1=N\c1cccc(C(=O)O)c1	18.5	–
CN1C(=O)/C(=C/c2ccccc2Cl)S/C1=N\c1cccc(C(=O)O)c1	54.6	–
CCN1C(=O)/C(=C/c2ccccn2)S/C1=N\c1cccc(C(=O)O)c1	38.7	–
CCN1C(=O)/C(=C/c2ccc(C)cc2)S/C1=N\c1cccc(C(=O)O)c1	41.7	–
COC(=O)COc1ccccc1/C=C1\S/C(=N\c2cccc(C(=O)O)c2)N(C(C)C)C1=O	55.7	–
CCCN1C(=O)/C(=C/c2ccc(OCC(=O)OC)cc2)S/C1=N\c1cccc(C(=O)O)c1	0	–
CCN1C(=O)/C(=C/c2ccco2)S/C1=N\c1cccc(C(=O)O)c1	29.2	–
CN1C(=O)/C(=C/c2ccccc2OCc2ccccc2)S/C1=N\c1cccc(C(=O)O)c1	44.8	–
COC(=O)COc1ccc(/C=C2\S/C(=N\c3cccc(C(C)=O)c3)N(C(C)C)C2=O)cc1	7.4	–
CCCN1C(=O)/C(=C/c2ccc(OCC(=O)OC)cc2)S/C1=N\c1cccc(C(C)=O)c1	0	–
CCN1C(=O)/C(=C/c2ccc(C(F)(F)F)cc2)S/C1=N\c1cccc(C(=O)O)c1	50.8	–
C=CCN1C(=O)/C(=C/c2ccc(OCC(=O)O)cc2)S/C1=N\c1cccc(C(=O)O)c1	1.4	–
CN1C(=O)/C(=C/c2ccco2)S/C1=N\c1cccc(C(=O)O)c1	30.1	–
CCCCN1C(=O)/C(=C/c2ccc(O)cc2)S/C1=N\c1cccc(C(C)=O)c1	25.1	–
CCN1C(=O)/C(=C/c2ccc(OC)cc2)S/C1=N\c1cccc(C(=O)O)c1	56.2	–
CCN1C(=O)/C(=C/c2ccccc2OCC(=O)O)S/C1=N\c1cccc(C(=O)O)c1	15.9	–
CCN1C(=O)/C(=C/c2cccc(C)c2)S/C1=N\c1cccc(C(=O)O)c1	38.5	–
CCN1C(=O)/C(=C/c2cccc(C(F)(F)F)c2)S/C1=N\c1cccc(C(=O)O)c1	26	–
CCN1C(=O)/C(=C/c2ccc(OCC(=O)OC)cc2)S/C1=N\c1cccc(C(=O)O)c1	9.9	–
